Experimental data as given in paper PMC8662641, “Site-Specific Labeling of Endogenous Proteins Using CoLDR Chemistry” (Journal of the American Chemical Society, 2021).
Where “and” joins values, the source holds several entries; their conditions need not be identical. Equal values may be shown once.

Columns and labels:
[1] = biological target: T1, BTK-1h (Homo sapiens, UniProt Q06187); experiment: High-throughput screening with 1h-labeled BTK; assay type: binding
T1 construct: The BTK kinase domain was diluted to 2 μM in the buffer, and 2 μM 1h was added; made in house
T1 sequence (Q06187 402-655): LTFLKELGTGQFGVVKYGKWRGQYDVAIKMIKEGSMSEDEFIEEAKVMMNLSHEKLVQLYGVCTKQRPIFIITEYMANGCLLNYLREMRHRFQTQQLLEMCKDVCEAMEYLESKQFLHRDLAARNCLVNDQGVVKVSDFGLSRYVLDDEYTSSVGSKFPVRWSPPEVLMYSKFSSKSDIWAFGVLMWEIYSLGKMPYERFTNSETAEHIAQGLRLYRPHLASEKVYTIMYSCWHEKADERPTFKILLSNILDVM
Protocol: The collection was composed of BTK binding compounds obtained in our previous luminescence screen[37] (Data set S2). […] The resulting BTK-1h (50 μL) was added to the inhibitors.

[2] = biological target: BTK (Homo sapiens, UniProt Q06187); parameters: BTK kinase domain was expressed and purified as previously reported; made in house; method as in Reddi et al., J. Am. Chem. Soc. 2021, 143 (13), 4979–4992; conditions: ref Reddi et al., J. Am. Chem. Soc. 2021, 143 (13), 4979–4992; cited from earlier work
Chain of BTK (Q06187 402-655 limits assumed): as the sequence (Q06187 402-655) above

[3] = Dataset S2A, 200 μM compound, BTK-1h, 32 °C, 10 min

Structure (SMILES) | FI (650)/FI (620) [1, 3] | FI (BTK-1h)/FI (BTK-1h+Inhibitor) at 620 nm [1, 3] | BTK Inhibition reported in luminescence assay* [2] | FI (650)/FI (620) ([1]; Dataset S2C, BTK-1h with inhibitor) | FI (BTK-1h)/FI (BTK-1h+Inhibitor) at 620 nm ([1]; Dataset S2B, 200 μM inhibitor added to BTK-1h (2 μm))
CNC(=O)c1cc(Oc2ccc(NC(=O)Nc3cc(C(C)(C)C)nn3-c3ccc4ncccc4c3)c(F)c2)ccn1 [PCM-0095514-002] | 1.156 | 1.374 | 98.6 |  | 
Cc1ccc(-n2[nH]c(C)c(N=Nc3cccc(-c4cccc(C(=O)O)c4)c3O)c2=O)cc1C [PCM-0214811-001] | 1.073 and 1.008 | 1.009 and 1.024 | 80.2 |  | 
COS(=O)(=O)[O-].C[n+]1c2ccccc2nc2ccccc21 [PCM-0216061-001] | 1.059 | 1.045 | 64.9 |  | 
O=C(Nc1ccc(OC(F)(F)F)cc1)c1sccc1NCc1ccnc2ccccc12 [PCM-0094951-002] | 1.167 | 1.045 | 90.3 |  | 
CN(CC(=O)N(Cc1ccc(C2CCCCC2)cc1)c1ccc(C(=O)O)cc1)S(=O)(=O)c1c(F)c(F)c(F)c(F)c1F [PCM-0095763-002] | 1.026 | 1.04 | 68.7 |  | 
Cn1cc(C2=C(c3cccc(N)c3)C(=O)NC2=O)c2ccccc21 [PCM-0215795-001] | 1.701 | 1.062 | 80.3 |  | 
O=[N+]([O-])c1ccc(Nc2ccccc2-c2ccccc2)c2nonc12 [PCM-0215806-001] | 1.017 | 1.01 | 74.1 |  | 
CN[C@H]1C(=O)N[C@@H]2Cc3ccc(cc3)Oc3cc4cc(c3O[C@@H]3O[C@H](C(=O)O)[C@@H](O)[C@H](O)[C@H]3NC(=O)CCCCCCCCC(C)C)Oc3ccc(cc3Cl)[C@@H](O)[C@@H]3NC(=O)[C@H](NC(=O)[C@@H]4NC(=O)[C@@H](NC2=O)c2cc(cc(O)c2Cl)Oc2cc1ccc2O)c1ccc(O)c(c1)-c1c(O[C@H]2O[C@H](CO)[C@@H](O)[C@H](O)[C@@H]2O)cc(O)cc1[C@@H](C(=O)NCCCN(C)C)NC3=O [PCM-0215113-001] | 0.7724 | 1.097 | 73.2 |  | 
COC(=O)C1=C(C)NC(C)=C(C(=O)O[C@@H]2CCCN(Cc3ccccc3)C2)[C@@H]1c1cccc([N+](=O)[O-])c1.Cl [PCM-0214706-001] | 1.754 | 1.03 | 80.9 |  | 
Cc1nc(Nc2n[nH]c3c2CN(C(=O)N[C@H](CN(C)C)c2ccccc2)C3(C)C)c2sccc2n1 [PCM-0095819-002] | 0.9908 | 1.0756 | 72.4 |  | 
C=CC(=O)Nc1cccc(Oc2nc(Nc3ccc(N4CCN(C)CC4)cc3)ncc2Cl)c1 [PCM-0095023-002] | 1.149 | 1.02 | 91.7 |  | 
COc1cc(-c2oc3cc(O)cc(O)c3c(=O)c2O)ccc1O [PCM-0216402-001] | 1.5271 | 1.051 | 73.4 |  | 
CC#CC(=O)Nc1ccc2ncnc(Nc3cccc(Br)c3)c2c1 [PCM-0215449-001] | 1.009 | 1.056 | 102.8 |  | 
COC(=O)N[C@H](C(=O)N1CC2(CC2)C[C@H]1c1ncc(-c2ccc3c(c2)C(F)(F)c2cc(-c4ccc5nc([C@@H]6[C@H]7CC[C@H](C7)N6C(=O)[C@@H](NC(=O)OC)C(C)C)[nH]c5c4)ccc2-3)[nH]1)C(C)C [PCM-0215396-001] | 0.8983 | 1.05 | 74.9 |  | 
Cc1cc(-c2ccc(N=Nc3ccc4c(S(=O)(=O)[O-])cc(S(=O)(=O)[O-])c(N)c4c3O)c(C)c2)ccc1N=Nc1ccc2c(S(=O)(=O)[O-])cc(S(=O)(=O)[O-])c(N)c2c1O.[Na+].[Na+].[Na+].[Na+] [PCM-0214845-001] |  | 7.121 | 125.3 |  | 
CCOc1nc2cccc(C(=O)OC(C)OC(=O)OC3CCCCC3)c2n1Cc1ccc(-c2ccccc2-c2nn[nH]n2)cc1 (stereo not shown) [PCM-0090385-001] | 0.8568 | 1.076 | 53.7 |  | 

Structure (SMILES) | FI (650)/FI (620) [1, 3] | FI (BTK-1h)/FI (BTK-1h+Inhibitor) at 620 nm [1, 3] | BTK Inhibition reported in luminescence assay* [2] | FI (650)/FI (620) ([1]; Dataset S2C, BTK-1h with inhibitor) | FI (BTK-1h)/FI (BTK-1h+Inhibitor) at 620 nm ([1]; Dataset S2B, 200 μM inhibitor added to BTK-1h (2 μm))
COCCCc1sc(-c2ccccc2)nc1C(=O)Nc1ccccc1-c1nc2cc(CN3CCCC3)cnc2s1.Cl [PCM-0215812-001] | 0.6133 | 1.029 | 57.9 |  | 
CN(c1ncccc1CNc1nc(Nc2ccc3c(c2)CC(=O)N3)ncc1C(F)(F)F)S(C)(=O)=O.O=S(=O)(O)c1ccccc1 [PCM-0095340-005] | 1.135 | 1.028 | 84.8 |  | 
C=CC(=O)N1CCC(Oc2cc3c(Nc4ccc(Cl)c(Cl)c4F)ncnc3cc2OC)CC1 [PCM-0215416-001] | 1.023 | 1.082 | 119.3 |  | 
COc1cc(N2CCC(N3CCN(C)CC3)CC2)ccc1Nc1ncnc(Nc2ccccc2S(=O)(=O)C(C)C)n1 [PCM-0215273-001] | 1.877 | 1.327 | 89 |  | 
O=C(Nc1c[nH]nc1-c1nc2ccc(CN3CCOCC3)cc2[nH]1)NC1CC1 [PCM-0094942-002, AT9283] | 2.2858 | 1.798 | 93.8 | 1.798 | 
Cc1ccc(NC(=O)Nc2cc(C(F)(F)F)ccc2F)cc1Nc1ccc2c(c1)NC(=O)/C2=C\c1ccc[nH]1 [PCM-0215372-001] | 1.5507 | 1.003 | 115.9 |  | 
COc1cc2nccc(Oc3ccc(NC(=O)C4(C(=O)Nc5ccc(F)cc5)CC4)cc3)c2cc1OC [PCM-0094920-004] | 1.097 and 1.08 | 1.121 and 1.125 | 123.4 |  | 
COc1cc(NC(=O)c2ccc(-c3ccc(Cl)cc3)o2)cc(OC)c1 [PCM-0095366-002] | 1.0001 | 1.041 | 56.8 |  | 
Cc1cc(C)nc(NS(=O)(=O)c2ccc(NC(=S)NC(=O)COc3ccc(Br)cc3Cl)cc2)n1 [PCM-0095801-002] | 0.8921 | 1.024 | 59.5 |  | 
CCc1cccc(CC)c1NC(=O)N1Cc2[nH]nc(NC(=O)c3ccc(N4CCN(C)CC4)cc3)c2C1 [PCM-0095127-002] | 1.117 | 1.096 | 65.5 |  | 
CC1(C)C=Cc2c(ccc3c2OC[C@@H](c2ccc(O)cc2O)C3)O1 [PCM-0214974-001] | 1.13 | 1.0065 | 70.3 |  | 
CC(C)=CCC/C(C)=C/Cc1c(O)c(CC=C(C)C)c2c(c1O)C(=O)C1=C[C@@H]3C[C@H]4C(C)(C)O[C@@](C/C=C(/C)C(=O)O)(C3=O)[C@@]14O2 [PCM-0216347-001] | 1.074 | 1.011 | 100.4 |  | 
Cc1c[nH]c2nc(Nc3ccc(N4CCN(C)CC4)c(F)c3)nc(-c3cccc(CC#N)c3)c12 [PCM-0215633-001] | 1.1215 | 1.062 | 92.4 |  | 
CCOC(=O)c1ccc(N2NC(=O)/C(=C/c3ccc([N+](=O)[O-])o3)C2=O)cc1 [PCM-0095807-002] | 2.739 | 1.077 | 64.9 |  | 
O=[N+]([O-])c1ccc(Sc2cccc[n+]2[O-])c2nonc12 [PCM-0215705-001, NSC228155] | 7.1 | 1.02 | 73.4 |  | 7.1
